Where two headings read alike, the source gives them in different places.
How the values were obtained:
[1] = tested on: MCF7/FasR breast cancer cells; test: MTT cell viability, 72 h, dark or 458 nm irradiation; assay type: cell-based, human; conditions: for GI50: 72 h, MTT
Protocol: (§1) For all biology experiments, the compounds were solubilized in DMSO to reach a final fixed concentration equal to 0.1% v/v to avoid cytotoxicity caused by DMSO [89]. The results are normalized to controls (0.1% v/v DMSO). Depending on the cell type, approximatively 1000 to 10,000 cells/cm^2 were seeded in 48-well plates for MTT, ATP and GSH assays and 60 mm Petri dishes for Western blots. Cells were allowed to attach overnight and then incubated for 4 h with the different complexes (in the dark), then irradiated for 10 min, followed by an incubation in the dark up to 72 h.
(§2) Irradiation was conducted using an in-house device: a series of blue light LEDs selected according to the absorption spectra of the compounds at a 458 nm wavelength with an emitted power of 9.6 watts. The absorbed energy, or irradiance, was measured at 458 nm with a Thorlabs Optical Power Meter PM100A at 5 and 10 cm distance between the cell layer and the light source and expressed as mW/cm^2.
(§3) A tetrazolium-based MTT reagent (3-(4,5-dimethylthiazol-2-yl)-2,5-diphenyltetrazolium bromide) was used to determine cell viability, as previously described. After 72 h of treatment at 37 °C and 5% CO2, cells were incubated with 25 μL MTT solution (5 mg/mL; Sigma-Aldrich) for 4 h. After solubilization with 500 μL of lysis buffer (DMSO), formazan was quantified by spectrophotometry with a microplate reader at 570 nm absorbance (ClarioSTAR, BMG LabTech, Champigny-sur-Marne, France). GI50 values corresponding to the concentration that caused 50% inhibition of cell proliferation were calculated from dose–response curves obtained by nonlinear regression analysis. All results were calculated from data obtained in at least three independent experiments.

A549 lung cancer cells = test: as above; assay type: cell-based, human; conditions: for GI50: 72 h, MTT
Protocol: as §1, §2, §3

HeLa cervix cancer cells = test: as above; assay type: cell-based, human; conditions: for GI50: 72 h, MTT
Protocol: as §1, §2, §3

T24 bladder cancer cells = test: as above; assay type: cell-based, human; conditions: for GI50: 72 h, MTT
Protocol: as §1, §2, §3

[2] = tested on: PC-3 prostate cancer cells; test: as above; assay type: cell-based, human; conditions: for GI50: 72 h, MTT
Protocol: as §1, §2, §3

PC-3 = test: MTT cytotoxicity, 48 h; assay type: cell-based, human
Protocol: (§4) The in vitro cytotoxicity of iridium(III) complexes 4a–4g was first evaluated against cancer cell lines PC-3 (human prostate) and T24 (human bladder) and the non-cancerous NIH-3T3 cell line (murine fibroblasts) using colorimetric MTT tests after 48 h of treatment. The dimeric iridium precursor [IrCl(ppy)2]2 was used as reference and the results are summarized in Table S1 (Supplementary Materials) in the supporting information file. […] The complexes were also evaluated for their cytotoxicity towards healthy NIH-3T3 cells, giving access to the selectivity index (SI). […] No linear correlation between lipophilicity and anti-cancer activity was found for the iridium(III) complexes 4a–4g. For the following biological studies, we focused on the C1 series.
(§5) Table S1. Cytotoxic activity of iridium(III) NHC complexes 4a−4g expressed as GI50 (μM) values towards selected cancer and normal cell lines as determined by MTT assay (48 h).a Complex PC-3 T24 NIH3T3 SI (PC-3) SI (T24) […]
(§6) a GI50 values correspond to the concentration of complexes causing 50 % inhibition of cell growth.
(§7) Data were obtained from three independent experiments.
(§8) The cytotoxic effects of the NHC precursors, the imidazolium salts, which represents the potential hydrolysis and/or degradation products of the complexes, have been published before [SI-1, SI-2]. […]

T24 = test: MTT cytotoxicity, 48 h; assay type: cell-based, human
Protocol: as §4, §5, §6, §7, §8

[3] = Octanol–water partition coefficient, shake-flask method; assay type: physicochemical; conditions: n-octanol/water, UV absorbance 260 nm
Protocol: Lipophilicities of all complexes have been measured by the classical shake-flask method, using UV absorption. The Log p values range from -0.063 to 0.861 in increasing order –0.063 (4a), 0.035 (4d), 0.519 (4f), 0.581 (4c), 0.842 (4b), 0.847 (4e) and 0.861 (4g).
The octanol–water partition coefficients (P) of 4a to 4g were determined using a shake-flask method. Water (100 mL, distilled after milli-Q purification) and n-octanol (100 mL, Sigma-Aldrich, St. Louis, MO, USA, ACS spectrophotometric grade, ≥99%) were shaken together for 24 h to allow saturation of both phases. Stock solutions of the […] compounds (50 μM) were prepared in the aqueous phase and aliquots (1 mL) of each of these stock solutions were then added to an equal volume of the n-octanol phase. The resultant biphasic solutions were mixed for 1 h and then centrifuged (3000× g, 5 min) (Eppendorf Centrifuges 5415R and 5804R) to separate the phases. The concentrations of the complexes in the organic and aqueous phases were then determined using UV absorbance spectroscopy (260 nm). Log P was defined as the logarithm of the ratio of the concentrations of the studied complex in the organic and aqueous phases (Log P = Log {[Ir(org)]/[Ir(aq)]}; values reported are the means of at least two separate determinations).

NIH3T3 = test: MTT cytotoxicity, 48 h; assay type: cell-based, murine
Protocol: as §4, §5, §6, §7, §8

[4] = GI50 non-irradiated / GI50 irradiated

CSc1ccc(-[n+]2ccn3[c]2[Ir-3]24([c]5ccccc5-c5cccc[n+]52)([c]2ccccc2-c2cccc[n+]24)[c]2n(cc[n+]2-c2ccc(SC)cc2)C3)cc1.F[P-](F)(F)(F)(F)F [Complex 4d]
GI50 ([1]; 458 nm irradiation 10 min, read-out: GI50 MCF7 Blue): 0.117 µM | PI MCF7 [1, 4]: 3.1 | SI vs MC3T3, MCF7 Blue ([1]; blue light, GI50 MC3T3 / GI50 MCF7): 15.4 | SI vs NIH, MCF7 Blue ([1]; blue light, GI50 NIH-3T3 / GI50 MCF7): 23.8 | GI50 ([1]; dark, read-out: GI50 MCF7 Dark): 0.365 µM | SI vs MC3T3, MCF7 Dark ([1]; dark, GI50 MC3T3 / GI50 MCF7): 5.7 | SI vs NIH, MCF7 Dark ([1]; dark, GI50 NIH-3T3 / GI50 MCF7): 6.4 | GI50 (A549 lung cancer cells; 458 nm irradiation 10 min, read-out: GI50 A549 Blue): 0.617 µM | PI A549 (A549 lung cancer cells; [4]): 2.4 | SI vs MC3T3, A549 Blue (A549 lung cancer cells; blue light, GI50 MC3T3 / GI50 A549): 2.9 | SI vs NIH, A549 Blue (A549 lung cancer cells; blue light, GI50 NIH-3T3 / GI50 A549): 4.5 | GI50 (A549 lung cancer cells; dark, read-out: GI50 A549 Dark): 1.51 µM | SI vs MC3T3, A549 Dark (A549 lung cancer cells; dark, GI50 MC3T3 / GI50 A549): 1.4 | SI vs NIH, A549 Dark (A549 lung cancer cells; dark, GI50 NIH-3T3 / GI50 A549): 1.5 | GI50 (HeLa cervix cancer cells; 458 nm irradiation 10 min, read-out: GI50 HeLa Blue): 0.817 µM | PI HeLa (HeLa cervix cancer cells; [4]): 1.9 | SI vs MC3T3, HeLa Blue (HeLa cervix cancer cells; blue light, GI50 MC3T3 / GI50 HeLa): 2.2 | SI vs NIH, HeLa Blue (HeLa cervix cancer cells; blue light, GI50 NIH-3T3 / GI50 HeLa): 3.4 | GI50 (HeLa cervix cancer cells; dark, read-out: GI50 HeLa Dark): 1.54 µM | SI vs MC3T3, HeLa Dark (HeLa cervix cancer cells; dark, GI50 MC3T3 / GI50 HeLa): 1.4 | SI vs NIH, HeLa Dark (HeLa cervix cancer cells; dark, GI50 NIH-3T3 / GI50 HeLa): 1.5 | GI50 (T24 bladder cancer cells; 458 nm irradiation 10 min, read-out: GI50 T24 Blue): 0.165 µM | PI T24 (T24 bladder cancer cells; [4]): 3.0 | SI vs MC3T3, T24 Blue (T24 bladder cancer cells; blue light, GI50 MC3T3 / GI50 T24): 10.9 | SI vs NIH, T24 Blue (T24 bladder cancer cells; blue light, GI50 NIH-3T3 / GI50 T24): 16.8 | GI50 (T24 bladder cancer cells; dark, read-out: GI50 T24 Dark): 0.501 µM | SI vs MC3T3, T24 Dark (T24 bladder cancer cells; dark, GI50 MC3T3 / GI50 T24): 4.2 | SI vs NIH, T24 Dark (T24 bladder cancer cells; dark, GI50 NIH-3T3 / GI50 T24): 4.7 | GI50 ([2]; 458 nm irradiation 10 min, read-out: GI50 PC-3 Blue): 0.157 µM | PI PC-3 [2, 4]: 3.2 | SI vs MC3T3, PC-3 Blue ([2]; blue light, GI50 MC3T3 / GI50 PC-3): 11.5 | SI vs NIH, PC-3 Blue ([2]; blue light, GI50 NIH-3T3 / GI50 PC-3): 17.7 | GI50 ([2]; dark, read-out: GI50 PC-3 Dark): 0.509 µM | SI vs MC3T3, PC-3 Dark ([2]; dark, GI50 MC3T3 / GI50 PC-3): 4.1 | SI vs NIH, PC-3 Dark ([2]; dark, GI50 NIH-3T3 / GI50 PC-3): 4.6 | GI50 (PC-3; MTT): 0.71 µM | SI (PC-3) (PC-3; NIH3T3 vs PC-3): 12.0 | GI50 (T24; MTT): 0.95 µM | SI (T24) (T24; NIH3T3 vs T24): 8.9 | Log P [3]: 0.035 | GI50 (NIH3T3): 8.5 µM

— article PMC9861386, “N-Heterocyclic Carbene-Iridium Complexes as Photosensitizers for In Vitro Photodynamic Therapy to Trigger Non-Apoptotic Cell Death in Cancer Cells” (Molecules, 2023)
